Measured values reported in ChEMBL document CHEMBL1177735, “Amaryllidaceae alkaloids belonging to different structural subgroups display activity against apoptosis-resistant cancer cells” (J Nat Prod, 2010).
Counter-ions that a name gives are not always drawn.

What was measured:
[1] = Cytotoxicity against human OE21 cells after 72 hrs by MTT colorimetric assay; type: functional, cell-based; conditions: OE21, 72 h
[2] = Cytotoxicity against human Hs683 cells after 72 hrs by MTT colorimetric assay; type: functional, cell-based; conditions: Hs 683, 72 h
[3] = Cytotoxicity against human U373 cells after 72 hrs by MTT colorimetric assay; type: functional, cell-based, U-373MG ATCC; conditions: U373 MG
[4] = system: A549; experiment: Cytotoxicity against human A549 cells after 72 hrs by MTT colorimetric assay; type: functional, cell-based; conditions: A549, 72 h
[5] = system: SK-MEL; experiment: Cytotoxicity against human SK-MEL cells after 72 hrs by MTT colorimetric assay; type: functional, cell-based
[6] = system: B16-F10; experiment: Cytotoxicity against mouse B16F10 cells after 72 hrs by MTT colorimetric assay; type: functional, cell-based; conditions: B16-F10, 72 h

Row | SMILES | IC50 [1] [µM] | IC50 [2] [µM] | IC50 [3] [µM] | IC50 [4] [µM] | IC50 [5] [µM] | IC50 [6] [µM]
1 | O[C@H]1[C@H]2c3cc4c(cc3CN3CCC(=C[C@@H]1O)[C@H]23)OCO4 [LYCORINE] | 4.5 | 6.9 | 7.6 | 4.2 | 8.4 | –
2 | CO[C@@H]1C=C[C@@]23c4cc5c(cc4CO[C@]2(O)CN(C)[C@H]3C1)OCO5 [TAZETTINE] | 78 | > 10 | > 10 | > 10 | > 10 | > 10
3 | COC1=C[C@@H]2CCN3Cc4cc5c(cc4[C@@H]([C@H]23)[C@@H]1O)OCO5 [AMARBELLISINE] | 6.7 | 8.2 | 7.2 | – | 8.3 | –
4 | COC1C=C[C@@]23CCN(Cc4cc5c(cc42)OCO5)[C@@H]3C1 (stereo partly specified) | 97 | > 10 | > 10 | > 10 | > 10 | > 10
5 | CO[C@@H]1C=C[C@@]23c4cc5c(cc4[C@@H](O)N(C[C@H]2O)[C@H]3C1)OCO5 [HAEMANTHIDINE] | 3.7 | 4.3 | 3.8 | 4 | 4.2 | 3.1
6 | COc1c2c(cc3c1OCO3)[C@@]13CCN(C2)[C@@H]1CC=C[C@H]3O [BUPHANAMINE] | > 10 | > 10 | > 10 | > 10 | > 10 | > 10
7 | CC(O)CC(=O)O[C@H]1C[C@H]2CCN(C)[C@H]2[C@@H]2c3cc4c(cc3C(=O)O[C@H]21)OCO4 (stereo partly specified) [NOBILISITINE B] | > 10 | > 10 | > 10 | > 10 | > 10 | > 10
8 | [O-]c1cc2c3c(c1)c1cc4c(cc1c[n+]3CC2)OCO4 [UNGEREMINE] | > 10 | > 10 | 83 | > 10 | > 10 | > 10
9 | CO[C@@H]1C=C[C@@]23c4cc5c(cc4CN(C[C@@H]2O)[C@H]3C1)OCO5 [(+)-HAEMANTHAMINE] | 6.8 | 7 | 7.7 | 4.5 | 8.5 | 6.8
10 | COc1c2c(cc3c1OCO3)[C@]13C=C[C@H](OC)C[C@H]1N(C2)C[C@@H]3O [AMBELLINE] | 86 | > 10 | > 10 | > 10 | > 10 | > 10
11 | COc1cc2c(cc1O)CN1CCC3=CC[C@@H](O)[C@@H]2[C@@H]31 [NORPLUVINE] | > 10 | > 10 | > 10 | > 10 | > 10 | > 10
12 | COc1cc2c(cc1OC)[C@@H]1[C@H](O)[C@@H](OC)C=C3CCN(C2)[C@H]31 [GALANTHINE] | > 10 | > 10 | > 10 | > 10 | > 10 | > 10
13 | COc1cc2c(cc1O)[C@@H]1[C@H](O)[C@@H](O)C=C3CCN(C2)[C@H]31 [PSEUDOLYCORINE] | 7.9 | 7.9 | 7.8 | 7.4 | > 10 | –
14 | CN1CC[C@@H]2C[C@H](O)[C@@H]3OC(=O)c4cc5c(cc4[C@H]3[C@@H]21)OCO5 [CLIVONINE HYDROCHLORIDE] | > 10 | > 10 | > 10 | > 10 | > 10 | > 10
15 | O[C@@H]1CC=C2CCN3Cc4cc5c(cc4[C@H]1[C@@H]23)OCO5 [CARANINE] | > 10 | > 10 | > 10 | > 10 | > 10 | > 10
